In patent publication US20090221567A1, “MUSCARINIC RECEPTOR AGONISTS, COMPOSITIONS, METHODS OF TREATMENT THEREOF, AND PROCESSES FOR PREPARATION THEREOF 177” (ASTRAZENECA AB, priority 2008, published 2009):
pEC50: −log10 of the molar value. Read-outs that look alike come from different tables or passages of the source.

Columns and labels:
Format in all cases: cell-based
[1] = target: T1, hM5 (human Muscarinic receptor subtype 5) (Homo sapiens, UniProt P08912); assay: Human M5 calcium mobilization FLIPR assay; details: receptor expressed in CHO cells, intracellular Ca2+ release
T1 construct: expressed in transfected cells; host or cells: CHO cells (Chinese hamster ovary cells, ATCC)
T1 sequence (P08912 1-532): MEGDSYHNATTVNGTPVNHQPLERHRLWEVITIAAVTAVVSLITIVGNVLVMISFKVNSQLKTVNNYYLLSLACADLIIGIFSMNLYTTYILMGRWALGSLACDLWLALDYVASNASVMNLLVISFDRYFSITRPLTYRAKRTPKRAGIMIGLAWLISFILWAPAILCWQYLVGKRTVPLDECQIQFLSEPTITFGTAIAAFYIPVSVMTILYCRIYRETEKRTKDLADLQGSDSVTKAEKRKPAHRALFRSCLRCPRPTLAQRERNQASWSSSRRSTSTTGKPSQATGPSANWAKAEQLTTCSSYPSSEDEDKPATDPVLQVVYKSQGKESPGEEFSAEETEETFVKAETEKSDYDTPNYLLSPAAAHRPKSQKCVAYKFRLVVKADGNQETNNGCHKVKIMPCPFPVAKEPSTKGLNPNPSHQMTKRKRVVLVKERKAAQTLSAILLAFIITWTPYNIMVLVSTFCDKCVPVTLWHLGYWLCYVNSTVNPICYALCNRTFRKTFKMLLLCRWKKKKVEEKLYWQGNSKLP
Procedure: (§1) The compound activity in the present invention (EC50 or IC50) is measured using a 384 plate-based imaging assay that monitors drug induced intracellular Ca^2+ release in whole cells. Activation of hM1 (human Muscarinic receptor subtype 1, gene bank access NM_000738), rM1 (rat Muscarinic receptor subtype 1, gene bank access NM_080773), hM3 (human Muscarinic receptor subtype 3, gene bank access NM_000740NM_000740) and hM5 (human Muscarinic receptor subtype 5, gene bank access NM_0121258), receptors expressed in CHO cells (Chinese hamster ovary cells, ATCC) is quantified in a Molecular Devices FLIPR IITM instrument as an increase in fluorescent signal. Inhibition of hM3 and hM5 by compounds is determined by the decrease in fluorescent signal in response to 2 nM acetylcholine activation.
(§2) Prior to experiment, the cell culture medium is removed from the plates by inversion. […] Plates are incubated at 37° C. for 60 minutes prior to start the experiment. The incubation is terminated by washing the cells four times in assay buffer, leaving a residual 25 μl buffer per well. Cell plates are then transferred to the FLIPR, ready for compound additions.
(§3) The day of experiment, acetylcholine and compounds are diluted in assay buffer in three-fold concentration range (10 points serial dilution) for addition by FLIPR instrument. For all calcium assays, a baseline reading is taken for 10 seconds followed by the addition of 12.5 μl of compounds, resulting in a total well volume of 37.5 μl. Data is collected every second for 60 pictures and then every 6 seconds for 20 pictures prior to the addition of agonist. For hM3 and hM5, before agonist addition, a second baseline reading is taken for 10 seconds followed by the addition of 12.5 μl of agonist or buffer, producing a final volume of 50 μl. After agonist stimulation, the FLIPR continues to collect data every second for 60 pictures and then every 6 seconds for 20 pictures. The fluorescence emission is read using filter 1 (emission 510-570 nm) by the FLIPR on board CCD camera.
(§4) Calcium mobilization output data are calculated as the maximal relative fluorescence unit (RFU) minus the minimal value for both compound and agonist reading frame (except for hM1 and rM1 using only the maximal RFU). Data are analyzed using sigmoidal fits of a non-linear curve-fitting program (XLfit version 4.2.2 Excel add-in version 4.2.2 build 18 math 1Q version 2.1.2 build 18). All pEC50 and pIC50 values are reported as arithmetic means±standard error of mean of ‘n’ independent experiments.

[2] = target: T2, hM3 (human Muscarinic receptor subtype 3) (Homo sapiens, UniProt P20309); assay: Human M3 calcium mobilization FLIPR assay; details: receptor expressed in CHO cells, intracellular Ca2+ release
T2 construct: expressed in transfected cells; host or cells: CHO cells (Chinese hamster ovary cells, ATCC)
Procedure: as §1, §2, §3, §4

[3] = target: T3, hM1 (human Muscarinic receptor subtype 1) (Homo sapiens, UniProt P11229); assay: Human M1 calcium mobilization FLIPR assay
T3 construct: expressed in transfected cells; host or cells: CHO cells (Chinese hamster ovary cells, ATCC)
T3 sequence (P11229 1-460): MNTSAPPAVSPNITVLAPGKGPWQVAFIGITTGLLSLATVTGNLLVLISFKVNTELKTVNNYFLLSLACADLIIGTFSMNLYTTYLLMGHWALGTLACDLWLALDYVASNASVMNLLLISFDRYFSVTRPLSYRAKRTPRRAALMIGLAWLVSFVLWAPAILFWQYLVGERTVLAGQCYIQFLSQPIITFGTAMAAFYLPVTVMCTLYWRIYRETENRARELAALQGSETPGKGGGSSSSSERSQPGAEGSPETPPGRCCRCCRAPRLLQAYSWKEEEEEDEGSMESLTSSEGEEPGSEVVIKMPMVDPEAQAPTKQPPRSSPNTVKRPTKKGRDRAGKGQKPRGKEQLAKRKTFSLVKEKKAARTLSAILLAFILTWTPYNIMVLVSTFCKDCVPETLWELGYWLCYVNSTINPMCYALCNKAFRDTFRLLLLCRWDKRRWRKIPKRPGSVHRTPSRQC
Procedure: as §1, §2, §3, §4

[4] = receptor expressed in CHO cells, intracellular Ca2+ release, read-out: hM1 EC50

T2 sequence (P20309 whole entry): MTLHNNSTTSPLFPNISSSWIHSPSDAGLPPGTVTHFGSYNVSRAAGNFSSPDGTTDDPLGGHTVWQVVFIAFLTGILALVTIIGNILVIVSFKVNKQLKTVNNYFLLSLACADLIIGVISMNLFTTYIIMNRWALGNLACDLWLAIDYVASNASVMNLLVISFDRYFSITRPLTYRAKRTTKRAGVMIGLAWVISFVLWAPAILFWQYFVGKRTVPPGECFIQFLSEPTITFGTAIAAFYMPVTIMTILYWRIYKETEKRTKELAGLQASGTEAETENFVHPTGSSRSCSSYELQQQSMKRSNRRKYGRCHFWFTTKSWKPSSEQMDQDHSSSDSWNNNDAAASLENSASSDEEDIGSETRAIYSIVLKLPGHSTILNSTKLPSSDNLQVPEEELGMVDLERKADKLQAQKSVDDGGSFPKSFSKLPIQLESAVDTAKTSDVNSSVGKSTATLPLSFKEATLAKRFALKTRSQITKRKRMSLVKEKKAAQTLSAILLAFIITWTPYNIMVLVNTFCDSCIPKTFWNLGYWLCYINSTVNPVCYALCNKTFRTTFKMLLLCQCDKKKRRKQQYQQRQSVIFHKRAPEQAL

pEC50 [3, 4]	pEC50 ([3]; read-out: hM1 EC50 values)	Compound	other results
6.57		COc1ccsc1C(=O)N1CCC(N2CCC(N3C(=O)OC[C@H]4CCCC[C@@H]43)CC2)CC1 (racemic) [Example 17, (±)(trans)-10-[1-[1-(3-methoxythiophene-2-carbonyl)-4-piperidyl]-4-piperidyl]-8-oxa-10-azabicyclo[4.4.0]decan-9-one]	pEC50 [1]: < 4.40; pEC50 [2]: < 4.40
	< 5.54	Cc1ccccc1C(=O)N1CCC(N2CCC(N3C(=O)OC[C@H]4CCCC[C@@H]43)CC2)CC1 [(4aS,8aS)-1-[1-[1-(2-methylbenzoyl)-4-piperidyl]-4-piperidyl]-4a,5,6,7,8,8a-hexahydro-4H-benzo[d][1,3]oxazin-2-one]	
6.66		CC(C)OC(=O)N1CCC(N2CCC(N3C(=O)OC[C@H]4CCCC[C@@H]43)CC2)CC1 [Example 16, Propan-2-yl 4-[4-[(1S,6S)-9-oxo-8-oxa-10-azabicyclo[4.4.0]dec-10-yl]-1-piperidyl]piperidine-1-carboxylate]	
	< 5.54	CC(C)OC(=O)N1CCC(C)(N2CCC(N3C(=O)CO[C@H]4CCCC[C@@H]43)CC2)CC1 [isopropyl 4-[4-[(4aS, 8aS)-3-oxo-4a,5,6,7,8,8a-hexahydrobenzo[b][1,4]oxazin-4-yl]-1-piperidyl]-4-methyl-piperidine-1-carboxylate]	
	< 5.54	CC(C)(C)OC(=O)N1CCC(N2CCC(N3C(=O)OC[C@@H]4CCCC[C@H]43)CC2)CC1 [tert-butyl 4-[4-[(4aR,8aR)-2-oxo-4a,5,6,7,8,8a-hexahydro-4H-benzo[d][1,3]oxazin-1-yl]-1-piperidyl]piperidine-1-carboxylate]	

Further lines, the molecule ahead of its results:

Compound	pEC50 [3, 4]	pEC50 ([3]; read-out: hM1 EC50 values)	other results
CCOC(=O)N1CCC(N2CCC(N3C(=O)NC[C@H]4CCCC[C@@H]43)CC2)C1 (stereo partly drawn) [Example 5, ethyl 3-[4-[(4aR,8aS)-2-oxo-3,4,4a,5,6,7,8,8a-octahydroquinazolin-1-yl]-1-piperidyl]pyrrolidine-1-carboxylate]	7.51		
CC(C)OC(=O)N1CCC(C)(N2CCC(N3C(=O)CN[C@H]4CCCC[C@@H]43)CC2)CC1 [isopropyl 4-[4-[(4aS,8aS)-2-oxo-3,4,4a,5,6,7,8,8a-octahydroquinoxalin-1-yl]-1-piperidyl]-4-methyl-piperidine-1-carboxylate]		< 5.54	
CC(C)OC(=O)N1CC[C@H](N2CCC(N3C(=O)CO[C@H]4CCCC[C@@H]43)CC2)C1 [isopropyl (3S)-3-[4-[(4aS,8aS)-3-oxo-4a,5,6,7,8,8a-hexahydrobenzo[b][1,4]oxazin-4-yl]-1-piperidyl]pyrrolidine-1-carboxylate]		< 5.54	
COC(=O)N1CCC(N2CCC(N3C(=O)OC[C@H]4CCCC[C@@H]43)CC2)CC1 [methyl 4-[4-[(4aS,8aS)-2-oxo-4a,5,6,7,8,8a-hexahydro-4H-benzo[d][1,3]oxazin-1-yl]-1-piperidyl]piperidine-1-carboxylate]		< 5.54	
CC(C)(C)OC(=O)N1CCC(N2CCC(N3C(=O)CO[C@H]4CCCC[C@@H]43)CC2)CC1 [tert-butyl 4-[4-[(4aS,8aS)-3-oxo-4a,5,6,7,8,8a-hexahydrobenzo[b][1,4]oxazin-4-yl]-1-piperidyl]piperidine-1-carboxylate]		< 5.54	
